Where “and” joins values, the source holds several entries; their conditions need not be identical. Equal entries are not always repeated. Entries after “also recorded” stand apart in the source; their conditions may differ. Where two headings read alike, the source gives them in different places.
How the values were obtained:
[1] = test system: lymphoid leukemia L1210; details: cited from earlier work; for activity in L1210: prior testing
[2] = reported; Europe / Japan; cited from earlier work
[3] = test system: ependymoblastoma; type: in vivo, murine; details: for OD: QD1-5, Table X; for ILS: QD1-5, at OD
Text: ^c Ic tumor implantation, ip QD15 treatment schedule.
(§1) A third IC tumor model, the ependymoblastoma system, was also studied. This system requires intracerebral implantation of a solid tumor fragment while the IC L1210 and IC P388 systems utilize IC inoculated ascites tumor fluid. All three use IP drug treatment however. […] Cures (survivors from the group of six mice on the last day of the experiment) are indicated.

[4] = test system: B16 melanocarcinoma; type: in vivo, murine; details: for ILS: QD1-9, at OD, Table IX; for OD: QD1-9, Table IX
[5] = test system: lymphoid leukemia L1210; type: in vivo, murine
Text: as §1

[6] = test system: lymphocytic leukemia P388; type: in vivo, murine; details: for OD: QD1-9, Table IX; for ILS: QD1-9, at OD
[7] = test system: lymphoid leukemia L1210; details: for survivors, IP L1210: parentheses, per 6
Text: ^b Ip tumor implantation, ip QD19 treatment schedule.
^e ILS = [(treated survival + control survival) × 100%] - 100%
The L1210, P388 and B16 test systems described in Table II utilize intraperitoneal (IP) tumor implantation and IP drug treatment while the Lewis lung system employs subcutaneous tumor implantation and IP treatment. All three CNS tumor models (Table III) use intracerebral (IC) tumor implantation and IP treatment.
Aqueous saline solution (0.9%) was used as the drug vehicle. Normally, five doses were employed per experiment with the top dose chosen to produce toxicity. The lower doses were 50% of each preceeding dose.
Consistent with NCI antitumor test protocols, intraperitoneal (IP) administration of the drug was employed with all five tumor systems investigated. Tumor implantation was IP in the systems designated IP leukemia L1210 and P388 as well as B16 melanoma. Intracerebral (IC) tumor implantation was utilized in the IC L1210 and ependymoblastoma tumor systems.

[8] = Day 1 only (1 injection), Table VIII
[9] = QD1-9 (9 injections), Table VIII
[10] = QD1-9, day 30, at OD, Table VIII

**Q.** With `O=C1C(Cl)=C(N2CC2)C(=O)C(Cl)=C1N1CC1` [Compound 4, 2,5-dichloro-3,6-diaziridinyl-1,4-benzoquinone] as the molecule, how does the “activity in L1210” value [1] read?
**A.** inactive

**Q.** Which “activity in L1210” value [1] does the source give for `COC1=C(Br)C(=O)C(OC)=C(Br)C1=O` [Compound 14, 2,5-dibromo-3,6-dimethoxy-1,4-benzoquinone] here?
**A.** inactive

**Q.** For `NC1=C(Cl)C(=O)C(N)=C(Cl)C1=O` [Compound 19], which “activity in L1210” value [1] is on record?
**A.** inactive

**Q.** Which “activity in L1210” value [1] does the source give for `CC(=O)NC1=C(Cl)C(=O)C(NC(C)=O)=C(Cl)C1=O` [Compound 20, 2,5-dichloro-3,5-acetylamino-1,4-benzoquinone] here?
**A.** inactive

**Q.** Which “activity in L1210” value [1] does the source give for `CC(=O)NC1=C(N2CC2)C(=O)C(NC(C)=O)=C(N2CC2)C1=O` [Compound 27, reference compound] here?
**A.** intraperitoneal (IP) leukemia L1210 activity

**Q.** Which “activity in L1210” value [1] does the source give for `COC1=C(N2CC2)C(=O)C(OC)=C(N2CC2)C1=O` [Compound 28, reference compound] here?
**A.** intraperitoneal (IP) leukemia L1210 activity

**Q.** For `O=C1C=C(N2CC2)C(=O)C(N2CC2)=C1N1CC1` [Compound 29, Trenimon], which “clinical activity” value [2] is on record?
**A.** Clinical activity has been reported

**Q.** With `COC(COC(N)=O)C1=C(N2CC2)C(=O)C(C)=C(N2CC2)C1=O` (stereo not shown) [Compound 30, carbazilquinone] as the molecule, how does the “clinical activity” value [2] read?
**A.** Clinical activity has been reported

**Q.** What does the source list for `NC(=O)CNC1=C(N2CC2)C(=O)C(NCC(N)=O)=C(N2CC2)C1=O` [Compound 40]?
**A.** OD [3]: 2.0 mg/kg/injection and 1.0 mg/kg/injection; ILS ([3]; Table X): 64% and 50%; ILS [4]: 37% and 22%; ILS ([5]; QD1-9, at OD, Table X): 16%; OD [6]: 2.0 mg/kg/injection; ILS ([6]; Table IX): 85% and 71%; OD [7, 8]: 10.0 mg/kg/injection; ILS ([7]; Day 1 only, at OD, Table VIII): 21% and 15%; OD ([7]; Q4D (day 1,5,9), Table VIII): 8.0 mg/kg/injection; OD [7, 9]: 10.0 mg/kg/injection; ILS ([7]; QD1-9, at OD, Table VIII): 92% and 91%

**Q.** Which “activity in ependymoblastoma” value [3] does the source give for `CN(C)C1=C(N2CC2)C(=O)C(N(C)C)=C(N2CC2)C1=O` [Compound 41, 2,5-DIAZIRIDINYL-3,6-BIS(DIMETHYLAMINO)-1,4-BENZOQUINONE] here?
**A.** among the most active materials

**Q.** What about the OD [3] of the same molecule?
**A.** 1.0 mg/kg/injection and 0.5 mg/kg/injection

**Q.** What about the ILS ([3]; Table X) of the same molecule?
**A.** 215% and 190%

**Q.** And the “animals alive per 6” value ([3]; QD1-5, day 60, at OD, Table X)?
**A.** 5 and 4

**Q.** And the “survivors, EM” value ([3]; Table XI, parentheses, per 6)?
**A.** 5

**Q.** What about the OD [4] of the same molecule?
**A.** 0.2 mg/kg/injection

**Q.** And the ILS [4]?
**A.** 16% and 12%

**Q.** What about the “activity in IC L1210” value [5] of the same molecule?
**A.** most active; also recorded: significant activity

**Q.** And the OD ([5]; Q4D(1,5,9), Table X)?
**A.** 3.0 mg/kg/injection

**Q.** And the ILS ([5]; Q4D(1,5,9), at OD, Table X)?
**A.** 72% and 56%

**Q.** What about the OD [6] of the same molecule?
**A.** 1.0 mg/kg/injection and 0.5 mg/kg/injection

**Q.** What about the ILS ([6]; Table IX) of the same molecule?
**A.** 74% and 37%

**Q.** And the OD [7, 8]?
**A.** 1.5 mg/kg/injection

**Q.** And the ILS ([7]; Day 1 only, at OD, Table VIII)?
**A.** 21% and 15%

**Q.** And the OD ([7]; Q4D (day 1,5,9), Table VIII)?
**A.** 3.0 mg/kg/injection

**Q.** And the ILS ([7]; Q4D, at OD, Table VIII)?
**A.** 120% and 73%

**Q.** And the “animals alive per 6” value ([7]; Q4D, day 30, at OD, Table VIII)?
**A.** 1

**Q.** And the “survivors, IP L1210” value ([7]; Table XI)?
**A.** 1

**Q.** For `CN(CCO)C1=C(N2CC2)C(=O)C(N(C)CCO)=C(N2CC2)C1=O` [Compound 42], which OD [3] is on record?
**A.** 0.4 mg/kg/injection and 0.2 mg/kg/injection

**Q.** What about the ILS ([3]; Table X) of the same molecule?
**A.** 84% and 69%

**Q.** And the “activity in B16 melanoma” value [4]?
**A.** approached minimal reproducible activity

**Q.** And the OD [4]?
**A.** 0.8 mg/kg/injection

**Q.** And the ILS [4]?
**A.** 47% and 31%

**Q.** What about the OD ([5]; QD1-9, Table X) of the same molecule?
**A.** 4.0 mg/kg/injection and 2.0 mg/kg/injection

**Q.** What about the ILS ([5]; QD1-9, at OD, Table X) of the same molecule?
**A.** 45% and 32%

**Q.** And the OD [6]?
**A.** 1.6 mg/kg/injection and 0.8 mg/kg/injection

**Q.** What about the ILS ([6]; Table IX) of the same molecule?
**A.** 162%

**Q.** And the ILS ([7]; Day 1 only, at OD, Table VIII)?
**A.** -5%

**Q.** And the OD ([7]; Q4D (day 1,5,9), Table VIII)?
**A.** 0.4 mg/kg/injection and 0.2 mg/kg/injection

**Q.** What about the OD [7, 9] of the same molecule?
**A.** 1.5 mg/kg/injection

**Q.** What about the ILS ([7]; QD1-9, at OD, Table VIII) of the same molecule?
**A.** 114% and 111%

**Q.** And the “animals alive per 6” value [7, 10]?
**A.** 1

**Q.** What about the “survivors, IP L1210” value ([7]; Table XI) of the same molecule?
**A.** 1

**Q.** With `O=C1C(N2CC2)=C(N2CCCC(O)C2)C(=O)C(N2CC2)=C1N1CCCC(O)C1` (stereo not shown) [Compound 45] as the molecule, how does the ILS ([3]; Table X) read?
**A.** 64% and 48%

**Q.** And the “activity in B16 melanoma” value [4]?
**A.** approached minimal reproducible activity

**Q.** What about the OD [4] of the same molecule?
**A.** 1.0 mg/kg/injection

**Q.** What about the ILS [4] of the same molecule?
**A.** 40% and 37%

**Q.** And the OD ([5]; Q4D(1,5,9), Table X)?
**A.** 8.0 mg/kg/injection and 6.0 mg/kg/injection

**Q.** And the OD [6]?
**A.** 1.0 mg/kg/injection

**Q.** What about the ILS ([6]; Table IX) of the same molecule?
**A.** 95% and 78%

**Q.** What about the OD ([7]; Q4D (day 1,5,9), Table VIII) of the same molecule?
**A.** 6.0 mg/kg/injection and 4.0 mg/kg/injection

**Q.** What about the ILS ([7]; Q4D, at OD, Table VIII) of the same molecule?
**A.** 104% and 84%

**Q.** And the “animals alive per 6” value ([7]; Q4D, day 30, at OD, Table VIII)?
**A.** 2

**Q.** And the OD [7, 9]?
**A.** 3.0 mg/kg/injection

**Q.** And the ILS ([7]; QD1-9, at OD, Table VIII)?
**A.** 59% and 44%

**Q.** Which OD [3] does the source give for `O=C1C(N2CCN(CCO)CC2)=C(N2CC2)C(=O)C(N2CCN(CCO)CC2)=C1N1CC1` [Compound 47] here?
**A.** 1.0 mg/kg/injection

**Q.** What about the ILS ([3]; Table X) of the same molecule?
**A.** 75%

**Q.** What about the ILS [4] of the same molecule?
**A.** 22%

**Q.** What about the “activity in IC L1210” value [5] of the same molecule?
**A.** marginal IC L1210 activity

**Q.** And the OD ([5]; QD1-9, Table X)?
**A.** 2.0 mg/kg/injection and 1.5 mg/kg/injection

**Q.** And the ILS ([5]; QD1-9, at OD, Table X)?
**A.** 43% and 41%

**Q.** What about the T-C ([5]; QD1-9, day 5, at OD, Table X) of the same molecule?
**A.** -1.4 grams

**Q.** And the “activity in IP P388” value [6]?
**A.** very active producing multiple cures

**Q.** And the OD [6]?
**A.** 0.5 mg/kg/injection and 1.0 mg/kg/injection

**Q.** What about the ILS ([6]; Table IX) of the same molecule?
**A.** 143%

**Q.** What about the “animals alive per 6” value ([6]; QD1-9, day 30, at OD, Table IX) of the same molecule?
**A.** 3 and 6

**Q.** And the “survivors, P388” value ([6]; Table XI, parentheses, per 6)?
**A.** 3

**Q.** And the “activity in IP L1210” value [7]?
**A.** produced cures; also recorded: superior

**Q.** What about the OD [7, 8] of the same molecule?
**A.** 4.0 mg/kg/injection

**Q.** What about the OD ([7]; Q4D (day 1,5,9), Table VIII) of the same molecule?
**A.** 4.0 mg/kg/injection and 2.0 mg/kg/injection

**Q.** And the ILS ([7]; Q4D, at OD, Table VIII)?
**A.** 180%

**Q.** What about the “animals alive per 6” value ([7]; Q4D, day 30, at OD, Table VIII) of the same molecule?
**A.** 3 and 4

**Q.** And the OD [7, 9]?
**A.** 1.0 mg/kg/injection and 0.5 mg/kg/injection

**Q.** And the T-C ([7]; QD1-9, day 5, at OD, Table VIII)?
**A.** -1.7 grams

**Q.** And the “animals alive per 6” value [7, 10]?
**A.** 1

**Q.** What about the “ILS (%) IP L1210” value ([7]; Table XI, outstanding activity) of the same molecule?
**A.** 180%

**Q.** And the “survivors, IP L1210” value ([7]; Table XI)?
**A.** 3

**Q.** For `O=C1C(Cl)=C(Cl)C(=O)C(Cl)=C1Cl` [chloranil, tetrachlorobenzoquinone, reference compound], which “activity in L1210” value [1] is on record?
**A.** inactive

**Q.** With `O=C1C(N2CC2)=C(N2CC2)C(=O)C(N2CC2)=C1N1CC1` [tetraaziridinyl derivative, reference compound] as the molecule, how does the ILS ([1]; L1210 leukemia, earlier evaluation) read?
**A.** 39%

Source: US4704384A, “Aziridinyl quinone antitumor agents” (priority 1981, dated 1987)
